Experimental data: patent US6239104A, “Isolation and structural elucidation of the cytostatic linear and cyclo-depsipeptides dolastatin 16, dolastatin 17, and dolastatin 18” (priority 1999, dated 2001)
In brackets after ≈: the same amount, converted by molar mass. Starred links: 1 amine or outer side, 2 acyl side, 3 side chain; linkers in the order of their positions; H or OH if unused. Non-standard residues stand in square brackets, D forms with d. Residues, ends and D or L forms follow the SMILES beside them. X1 = CC(Cc1ccccc1)C(N[*:1])C(=O)[*:2]; X2 = CC(C)C(N[*:1])C(C)C(=O)[*:2]; dNMeV = CN[C@@H](C(=O)O)C(C)C; dHiv = CC(C)[C@@H](O)C(=O)O; Lac = C[C@H](O)C(=O)O

Legend:
Format in all cases: cell-based
[1] = system: five human leukemia cell lines; assay: NCI screen, five human leukemia cell lines; settings: in words
Source text: (§1) The administration of Dolastatin 16 is useful for treating neoplastic disease associated with malignant cell growth, and expectedly its synthetic counterpart, as well as, its pharmaceutically and physiologically active derivatives will be useful for treating neoplastic disease associated with malignant cell growth in animals and humans. For example, Dolastatin 16 was screened against a minipanel of the U.S. National Cancer Institute's human cancer cell lines utilizing protocols described by Michael R. Boyd and Kenneth D. Paul in Some Practical Considerations and Applications of the National Cancer Institute In Vitro Anticancer Drug Discovery Screen, 34 DRUG D[…] 91 (1995) (and references cited therein).

NCI-H460 = assay: NCI human cancer cell line minipanel, lung NCI-H460
Source text: as §1
as §1, with “17” for “16”, “91 (1995) (and references cited therein).” left out

SF-295 = assay: NCI human cancer cell line minipanel, brain SF-295
Source text: as §1
as §1, with “17” for “16”, “91 (1995) (and references cited therein).” left out

[2] = system: complete panel of sixty human cancer cell lines; assay: NCI complete panel of sixty human cancer cell lines
Source text: as §1

KM 20L2 = assay: NCI human cancer cell line minipanel, colon KM 20L2
Source text: as §1
as §1, with “17” for “16”, “91 (1995) (and references cited therein).” left out

SK-MEL-5 = assay: NCI human cancer cell line minipanel, melanoma SK-MEL-5
Source text: as §1

[3] = system: a selection of human cancer cell lines, including lung cancer; assay: NCI minipanel, selection of human cancer cell lines; settings: in words
Source text: as §1, with “18” for “16”

| Structure (SMILES) | growth inhibition [1] | GI50 (NCI-H460; lung NCI-H460) | GI50 (SF-295) | GI50 [2] | GI50 (KM 20L2) | GI50 (SK-MEL-5) | growth inhibition [3] | ED50 (NCI-H460; lung cancer NCI-H460) |
| --- | --- | --- | --- | --- | --- | --- | --- | --- |
| CC(C)C1NC(=O)[C@@H]2CCCN2C(=O)C(C(C)Cc2ccccc2)NC(=O)[C@@H]2CCCN2C(=O)[C@@H](C(C)C)N(C)C(=O)[C@@H](C(C)C)OC(=O)[C@@H]2CCCN2C(=O)[C@H](C)OC(=O)C1C (some centres unmarked) [Dolastatin 16, cyclo-(Pro^1 --Dpv^2 --Pro^3 --Dml^4 --O--Lac^5 --Pro^6 --O--Hiv^7 --MeVal^8)] (cyclo([Lac]P[dHiv][dNMeV]P[X1]P[X2])) | comparable inhibitory results | 0.96 ng/mL (≈ 1.09 nM) | 5.2 ng/mL (≈ 5.92 nM) | 250 nM | 1.2 ng/mL (≈ 1.37 nM) | 3.3 ng/mL (≈ 3.75 nM) | – | – |
| CCCC(=O)C(C)(C)C(=O)N[C@@H](CC(C)C)C(=O)N(C)[C@H](Cc1ccccc1)C(=O)N[C@@H](Cc1ccccc1)c1nccs1 [Dolastatin 18, Dhex--Leu--MePhe--Doe] | – | – | – | – | – | – | significantly inhibit growth | 390 ng/mL (≈ 630 nM) |
